This assay has as its system LPS stimulated human PBMCs. Description: In vitro potency of steroid payloads in LPS stimulated human PBMCs (IL-1β, IL-6 ELISA). Type of assay: cell-based. Conditions: for impact of halogenation of the steroid ring on potency: compared with INX-SM-3; for IL-1β and IL-6 production / IL-1β production / potency relative to the other compounds of the experiment: 1 ng/mL LPS, 24 hr.

Setting [1] is: Experiment 1, 1000-1 nM, n=1 donor.
Where [2] appears, read: Experiment 5, 1000-0.5 nM, n=1 donor.
Setting [3] is: Experiment 3, 1000-0.2 nM, n=2 donors.

“Also recorded” adds a separate entry of the source. Counter-ions that a name gives are not always drawn.

Take `C[C@]12C=CC(=O)C=C1CC[C@H]1[C@@H]3C[C@H]4O[C@@H](c5ccc(CC67CC(N)(C6)C7)cc5)O[C@@]4(C(=O)CO)[C@@]3(C)C[C@H](O)[C@@]12F` [INX-SM-13, (6aS,6bR,7S,8aS,8bS,10R,11aR,12aS,12bS)-10-(4-((3-aminobicyclo[1.1.1]pentan-1-yl)methyl)phenyl)-6b-fluoro-7-hydroxy-8b-(2-hydroxyacetyl)-6a,8a-dimethyl-1,2,6a,6b,7,8,8a,8b,11a,12,12a,12b-dodecahydro-4H-naphtho[2′,1′:4,5]indeno[1,2-d][1,3]dioxol-4-one]: the “steroid potency as free payloads in LPS-activated human PBMCS (conclusions)” value (shortened to “steroid potency as free payloads”) was “varying degrees of dose dependent steroid potency”. Also, for the setting “Experiment 6, 1000-0.16 nM”, the “impact of halogenation of the steroid ring on potency” value is on record as “did not lead to increased potency”.
In the case of `C[C@]12C=CC(=O)C=C1[C@@H](F)C[C@H]1[C@@H]3C[C@H]4O[C@H](c5ccc(CC67CC(N)(C6)C7)cc5)O[C@@]4(C(=O)CO)[C@@]3(C)C[C@H](O)[C@@]12F` [INX-SM-74, (2S,6aS,6bR,7S,8aS,8bS,10S,11aR,12aS,12bS)-10-(4-((3-aminobicyclo[1.1.1]pentan-1-yl)methyl)phenyl)-2,6b-difluoro-7-hydroxy-8b-(2-hydroxyacetyl)-6a,8a-dimethyl-1,2,6a,6b,7,8,8a,8b,11a,12,12a,12b-dodecahydro-4H-naphtho[2′,1′:4,5]indeno[1,2-d][1,3]dioxol-4-one], the “steroid potency as free payloads” value was “varying degrees of dose dependent steroid potency; also recorded: moderate potency”. Moreover, where the note is “Experiment 6, 1000-0.16 nM”, the “impact of halogenation of the steroid ring on potency” value is “dose dependent potency”.
As to `C[C@]12C=CC(=O)C=C1CC[C@@H]1[C@@H]2[C@@H](O)C[C@@]2(C)[C@H]1C[C@H]1O[C@@H](c3ccc(Cc4cnc(N)s4)cc3)O[C@]12C(=O)CO` [INX-SM-1, (6aR,6bS,7S,8aS,8bS,10R,11aR,12aS,12bS)-10-(4-((2-aminothiazol-5-yl)methyl)phenyl)-7-hydroxy-8b-(2-hydroxyacetyl)-6a,8a-dimethyl-1,2,6a,6b,7,8,8a,8b,11a,12,12a,12b-dodecahydro-4H-naphtho[2′,1′:4,5]indeno[1,2-d][1,3]dioxol-4-one AcOH salt], the “steroid potency as free payloads” value is on record as “varying degrees of dose dependent steroid potency”. The “IL-1β and IL-6 production” value under setting [1] was “inhibit both IL-1β and IL-6 production”. For the same compound, the IL-1β production result (Experiment 2, 1000-1 nM, n=1 donor) is on record as “show inhibition in IL-1β production”.
On to `C[C@]12C=CC(=O)C=C1CC[C@@H]1[C@@H]2[C@@H](O)C[C@@]2(C)[C@H]1C[C@H]1O[C@@H](c3ccc(CC4(N)COC4)cc3)O[C@]12C(=O)CO` [INX-SM-33, (6aR,6bS,7S,8aS,8bS,10R,11aR,12aS,12bS)-10-(4-((3-aminooxetan-3-yl)methyl)phenyl)-7-hydroxy-8b-(2-hydroxyacetyl)-6a,8a-dimethyl-1,2,6a,6b,7,8,8a,8b,11a,12,12a,12b-dodeca hydro-4H-naphtho[2′,1′:4,5]indeno[1,2-d][1,3]dioxol-4-one], for which the “steroid potency as free payloads” value is recorded as “varying degrees of dose dependent steroid potency; also recorded: lowest potency among the R stereoisomers” and the “potency relative to the other compounds of the experiment” value is reported as “least potent compound among these compounds tested”. Also, the “IL-1β and IL-6 production” value under setting [2] is “dose dependent inhibition; also recorded: modest inhibition”.
In the case of `C[C@@]12CCC3=CC(=O)C=C[C@]3(C)[C@H]1[C@@H](O)C[C@@]1(C)[C@H]2C[C@H]2O[C@@H](c3ccc(CC45C6C7C4C4C5C6C74N)cc3)O[C@]21C(=O)CO` (stereo partly drawn) [INX-SM-9, (6aR,6bS,7S,8aS,8bS,10R,11aR,12aS,12bS)-10-(4-((4-aminocuban-1-yl)methyl)phenyl)-7-hydroxy-8b-(2-hydroxyacetyl)-6a,8a-dimethyl-1,2,6a,6b,7,8,8a,8b,11a,12,12a,12b-dodecahydro-4H-naphtho[2′,1′:4,5]indeno[1,2-d][1,3]dioxol-4-one], the “steroid potency as free payloads” value was “varying degrees of dose dependent steroid potency”. For the same compound, the IL-1β production result under setting [3] is “dose dependent inhibition”.
As for `C[C@@]12CCC3=CC(=O)C=C[C@]3(C)[C@H]1[C@@H](O)C[C@@]1(C)[C@H]2C[C@H]2O[C@@H](c3ccc(CC4CC5(CC(N)C5)C4)cc3)O[C@]21C(=O)CO` (stereo partly drawn) [INX-SM-32, (6aR,6bS,7S,8aS,8bS,11aR,12aS,12bS)-10-(4-((6-aminospiro[3.3]heptan-2-yl)methyl)phenyl)-7-hydroxy-8b-(2-hydroxyacetyl)-6a,8a-dimethyl-1,2,6a,6b,7,8,8a,8b,11a,12,12a,12b-dodecahydro-4H-naphtho[2′,1′:4,5]indeno[1,2-d][1,3]dioxol-4-one], the “steroid potency as free payloads” value is recorded as “varying degrees of dose dependent steroid potency”. Further, the “IL-1β and IL-6 production” value (Experiment 4, 500-1 nM, n=2) was “dose dependent inhibition in IL-1β and IL-6 production”.
For `C[C@]12C=CC(=O)C=C1CC[C@@H]1[C@@H]2[C@@H](O)C[C@@]2(C)[C@H]1C[C@H]1O[C@@H](c3ccc(CC4COC5(CNC5)C4)cc3)O[C@]12C(=O)CO` (stereo partly drawn) [INX-SM-31, (6aR,6bS,7S,8aS,8bS,11aR,12aS,12bS)-10-(4-((5-oxa-2-azaspiro[3.4]octan-7-yl)methyl)phenyl)-7-hydroxy-8b-(2-hydroxyacetyl)-6a,8a-dimethyl-1,2,6a,6b,7,8,8a,8b,11a,12,12a,12b-dodecahydro-4H-naphtho[2′,1′:4,5]indeno[1,2-d][1,3]dioxol-4-one], the “steroid potency as free payloads” value is recorded as “varying degrees of dose dependent steroid potency; also recorded: lowest potency among the R stereoisomers” and the “potency relative to the other compounds of the experiment” value is recorded as “least potent compound among these compounds tested”. Further, the IL-1β production result under setting [3] was “dose dependent inhibition”.
In the case of `C[C@]12C=CC(=O)C=C1CC[C@@H]1[C@@H]2[C@@H](O)C[C@@]2(C)[C@H]1C[C@H]1O[C@H](C34CC(Cc5cccc(N)c5)(C3)C4)O[C@]12C(=O)CO` [INX-SM-54, (6aR,6bS,7S,8aS,8bS,10S,11aR,12aS,12bS)-10-(3-(3-aminobenzyl)bicyclo[1.1.1]pentan-1-yl)-7-hydroxy-8b-(2-hydroxyacetyl)-6a,8a-dimethyl-1,2,6a,6b,7,8,8a,8b,11a,12,12a,12b-dodecahydro-4H-naphtho[2′,1′:4,5]indeno[1,2-d][1,3]dioxol-4-one], the “steroid potency as free payloads” value is reported as “did not show potency”. The “IL-1β and IL-6 production” value under setting [1] is on record as “did not show inhibition”.
For the compound `C[C@]12C=CC(=O)C=C1CC[C@@H]1[C@@H]2[C@@H](O)C[C@@]2(C)[C@H]1C[C@H]1O[C@H](c3ccc(CC45CC(N)(C4)C5)cc3)O[C@]12C(=O)CO` [INX-SM-53, (6aR,6bS,7S,8aS,8bS,10S,11aR,12aS,12bS)-10-(4-((3-aminobicyclo[1.1.1]pentan-1-yl)methyl)phenyl)-7-hydroxy-8b-(2-hydroxyacetyl)-6a,8a-dimethyl-1,2,6a,6b,7,8,8a,8b, 11a,12,12a,12b-dodecahydro-4H-naphtho[2′,1′:4,5]indeno[1,2-d][1,3]dioxol-4-one], the “steroid potency as free payloads” value is reported as “did not show potency”. Further, under setting [1], the “IL-1β and IL-6 production” value is listed as “did not show inhibition”.
On to `C[C@]12C=CC(=O)C=C1CC[C@@H]1[C@@H]2[C@@H](O)C[C@@]2(C)[C@H]1C[C@H]1O[C@@H](c3ccc(CC45CCC(N)(CC4)CC5)cc3)O[C@]12C(=O)CO` [INX-SM-10, (6aR,6bS,7S, 8aS,8bS,11aR,12aS,12bS)-10-(4-((4-aminobicyclo [2.2.2]octan-1-yl)methyl)phenyl)-7-hydroxy-8b-(2-hydroxyacetyl)-6a,8a-dimethyl-1,2,6a,6b,7,8,8a,8b,11a,12,12a,12b-dodecahydro-4H-naphtho[2′,1′:4,5]indeno[1,2-d][1,3]dioxol-4-one], for which the “steroid potency as free payloads” value is “varying degrees of dose dependent steroid potency”. Moreover, the “IL-1β and IL-6 production” value under setting [2] was “dose dependent inhibition; also recorded: robust inhibition”.
`C[C@]12C=CC(=O)C=C1CC[C@@H]1[C@@H]2[C@@H](O)C[C@@]2(C)[C@H]1C[C@H]1O[C@@H](c3ccc(Cc4csc(N)n4)cc3)O[C@]12C(=O)CO` [INX-SM-2, (6aR,6bS,7S,8aS,8bS,10R,11aR,12aS,12bS)-10-(4-((2-aminothiazol-4-yl)methyl)phenyl)-7-hydroxy-8b-(2-hydroxyacetyl)-6a,8a-dimethyl-1,2,6a,6b,7,8,8a,8b,11a,12,12a,12b-dodecahydro-4H-naphtho[2′,1′:4,5]indeno[1,2-d][1,3]dioxol-4-one AcOH salt]: the “steroid potency as free payloads” value is given as “varying degrees of dose dependent steroid potency”. The IL-1β production result (Experiment 6, 1000-0.16 nM, n=1) was “dose-dependent inhibition”.
For `C[C@]12C=CC(=O)C=C1CC[C@@H]1[C@@H]2[C@@H](O)C[C@@]2(C)[C@H]1C[C@H]1OC(c3ccc(CC4(N)CC(F)(F)C4)cc3)O[C@]12C(=O)CO` (stereo partly drawn) [INX-SM-35, (6aR,6bS,7S,8aS,8bS,10R,11aR,12aS,12bS)-10-(4-((1-amino-3,3-difluorocyclobutyl)methyl)phenyl)-7-hydroxy-8b-(2-hydroxyacetyl)-6a,8a-dimethyl 1,2,6a,6b,7,8,8a,8b,11a,12,12a,12b-dodecahydro-4H-naphtho[2′,1′:4,5]indeno[1,2-d][1,3]dioxol-4-one], the “steroid potency as free payloads” value is “varying degrees of dose dependent steroid potency”. In addition, the IL-1β production result under setting [3] is “dose dependent inhibition”.

For the origin of these results see patent US20230310634A1, “ANTI-HUMAN VISTA ANTIBODIES AND USE THEREOF” (IMMUNEXT, INC., priority 2020, published 2023).
